# Measurements published in patent publication US12467068B2, “Process for the production and recovery of bio-surfactant from Bacillus sp. MCC0156” (COUNCIL OF SCIENTIFIC & INDUSTRIAL RESEARCH, priority 2019, dated 2025).
# Experiments:
# [1] = set-up: Surface tension reduced to: unit not given here; conditions: cited from earlier work
# [2] = Surfactant properties of purified compounds (oil dispersion, surface tension, emulsification); type: physicochemical; conditions: purified compound
# Description: The purified compounds from the crude biosurfactants were analyzed for oil dispersion (OD), surface tension and emulsification activities using the standard protocols as mentioned in methodology. […] The low CMC value 0.3 mg/ml for crude biosurfactant results from mixture of compounds in compare to purified single compound.
# Artemia salina = assay: Toxicity on microcrustacean Artemia salina (mortality after 24 h); type: in vivo; conditions: 24 h at 28 °C, artificial sea water
# Description: The toxicity of bio-surfactants on microcrustacean Artemia salina was performed in artificial sea water with 30 g/L (w/v) NaCl. Different concentrations like, 10 μg/ml, 100 μg/ml and 1000 μg/ml of crude bio-surfactant and purified compound-1 was supplemented in artificial sea salt solution (pH 8.0) and inoculated with 20 numbers of micro-crustacean A. salina in 10 ml per tube of solution and incubated for 24 h at 28° C. under artificial light condition.
# The toxicity of bio-surfactants was determined by calculating the mortality rate against the control (in triplicate) after 24 h incubation. The effect of biosurfactants on the microorganisms was studied in minimal salt medium (MSM) to determine the utilization or degradation pattern of bio-surfactant in presence of Pseudomonas aeruginosa NCIM 2037, Arthrobacter sp NCIM 5452 and Rhodococcus sp NCIM 5488. The minimal salt medium was supplemented with 100 ppm of crude biosurfactant and inoculated with all three strains and incubated at 30° C., 150 rpm for 72 h. Effect of biosurfactants on growth of test strains were determined through measuring the optical density at 620 nm after incubation of 72 h.
compound,measurement,setting,value
Aneurinifactin,Surface tension reduced to,[1]; reported biosurfactant,26
same,CMC value,[1]; reported biosurfactants,0.026 mg/mL
"CC(C)CCCCCCCCCCCCC(O)CC(=O)O (stereo not drawn) [compound-2, 3-Hydroxy-16-methylheptadecanoic acid]","Surface properties (oil dispersion, surface tension, emulsification activity)",[2],not active
"C=CCCCCCCCCCCCCCCCCCCCCCCCCCCCCCCCCCCCCCCCCCCCCCCCCCCCCCCCCCCCCCCCCCCCCCCCCCCCCCCCCCCCCCCCCCCCCC [compound-1, 1-Pentanonacontene]",Mortality,Artemia salina; 10 μg/ml,59%
same,Mortality,Artemia salina; 100 μg/ml,61%
same,Mortality,Artemia salina; 1000 ug/ml,68%
same,E24 for n-hexane,[2],40%
same,Oil dispersion efficiency,[2],93.75%
same,Surface tension of distilled water decreased to,[2]; distilled water 71.41±0.069 mN/m,28.53±0.02 mN/m
